Here are results for three compounds from patent publication US20100189786A1, “CRYSTALLINE TOLTERODINE TARTARATE AND A PHARMACEUTICAL COMPOSITION CONTAINING THE SAME” (priority 2006, published 2010).

This series is described as follows: Measurement of particle size by the microscopic method. The class given is physicochemical. As to conditions: no treatment; for weight of the material that would pass through the 250 μm sieve: share by weight; for particles smaller than 30 μm: share of all particles. The protocol:
The drawings represent results of measurement of the particle size of the product prepared according to Example 2 by a microscopic method.
For all the batches, measurement of particle size was performed without any treatment using the microscopic method.

Take `Cc1ccc(O)c([C@H](CCN(C(C)C)C(C)C)c2ccccc2)c1.O=C(O)C(O)C(O)C(=O)O` [Batch I, R-tolterodine tartarate]: the maximum crystal size was 623 μm, the “weight of the material that would pass through the 250 μm sieve” value (from here on “weight”) worked out at 40.9% and the “particles smaller than 30 μm” value turned out to be 91.95%. For the setting “listed as batch I”, the maximum crystal size is 623 μm, the “weight” value turned out to be 40.9% and the “particles smaller than 30 μm” value is 91.95%.

Turning to `Cc1ccc(O)c([C@H](CCN(C(C)C)C(C)C)c2ccccc2)c1.O=C(O)C(O)C(O)C(=O)O` [Batch III, R-tolterodine tartarate], the maximum crystal size was 702 μm, the “weight” value turned out to be 41.3% and the “particles smaller than 30 μm” value is reported as 89.29%. Further, where the note is “listed as batch III”, the maximum crystal size is 702 μm, the “weight” value was 41.3% and the “particles smaller than 30 μm” value is 89.29%.

For `Cc1ccc(O)c([C@H](CCN(C(C)C)C(C)C)c2ccccc2)c1.O=C(O)C(O)C(O)C(=O)O` [Batch II, R-tolterodine tartarate], the maximum crystal size turned out to be 439 μm, the “weight” value came out at 47.2% and the “particles smaller than 30 μm” value was 94.73%. Besides, under “listed as batch II”, the maximum crystal size stood at 439 μm, the “weight” value is 47.2% and the “particles smaller than 30 μm” value is on record as 94.73%.
